According to patent publication US10888544B2, “Methods for treating Gaucher disease” (Genzyme Corporation, priority 2017, dated 2021):
Where “and” joins values, the source holds several entries; their conditions need not be identical. Equal values may be shown once. Read-outs that look alike come from different tables or passages of the source.

Assay: Phase 1 single dose pharmacokinetic study of eliglustat tartrate in severe renal impairment and matched normal renal function subjects (Example 3)
Type: in vivo, human
Conditions: for AUC / Cmax / AUC(0-inf) / AUC(0-t) / Vd/F / Tmax: human, 100 mg; for AUC: read-out: AUC, geometric mean
Experimental: A phase 1, open-label, 2-stage, pharmacokinetic and tolerability study of single dose eliglustat tartrate in subjects with renal impairment (RI) (mild, moderate, and severe) and subjects with normal renal function, matched to RI subjects by age, weight, and cytochrome P450 [CYP] 2D6 phenotype was carried out to study the effect of mild, moderate, and severe RI on the pharmacokinetics (PK) of eliglustat.
Methodology: A phase 1, open-label, 2-stage, pharmacokinetic and tolerability study of single dose eliglustat tartrate in subjects with renal impairment (RI) (mild, moderate, and severe) and subjects with normal renal function, matched to RI subjects by age, weight, and cytochrome P450 [CYP] 2D6 phenotype.
Approximately 32 subjects were planned to be enrolled in 2 stages: Stage 1 comprised of 8 subjects with severe RI and 8 subjects with normal renal function, matched by CYP2D6 phenotype, weight, and age. […] Stage 2 was to include 8 subjects with mild and 8 subjects with moderate RI. Each cohort was to enroll at least 6 CYP2D6 extensive metabolizers (EMs). The remaining 2 subjects were to be poor metabolizers (PMs), intermediate metabolizers (IMs) or EMs, enrolled according to the following preference: at least 20 subjects were to be screened for each cohort and if identified, up to 2 PMs were to be enrolled. If less than 2 PMs were identified, up to 2 IMs were to be enrolled for a total of 8 subjects. If less than 2 PMs and IMs were identified, up to 2 additional EMs were to be enrolled for a total of 8 subjects. Allowed concomitant medications included no more than one weak CYP3A inhibitor and one weak CYP2D6 inhibitor, alone or in combination.
CYP2D6 EMs and IMs were to receive a single 100 mg dose of eliglustat tartrate while CYP2D6 PMs were to receive a single 50 mg dose of eliglustat tartrate.
Normal renal function subjects: Male or female subjects, between 18 and 79 years, inclusive, body weight within 15% of the body weight of matched subject with RI, BMI between 18.0 and 37.0 kg/m^2 and a CrCl of >80 mL/min. Healthy subjects were also matched by age and CYP2D6 predicted phenotype based on genotype.
A single 100 mg capsule of eliglustat tartrate (equivalent to 84 mg of eliglustat) was to be administered to CYP2D6 EM or IM subjects with RI and matching healthy subjects.
Pharmacokinetics: Plasma eliglustat concentrations were used to determine the following PK parameters using noncompartmental methods: Maximum plasma concentration observed (Cmax), first time to reach Cmax (tmax), area under the plasma concentration versus time curve calculated using the trapezoidal method from time zero to the time corresponding to the last concentration above the limit of quantification, tlast (AUClast), area under the plasma concentration time curve extrapolated to infinity (AUC), terminal half-life associated with the terminal slope Xz (t1/2z), apparent total body clearance of a drug from plasma (CL/F), and apparent volume of distribution during the terminal phase (VZ/F).
Blood samples were collected at the following time points to assess plasma concentrations of eliglustat: predose, and 0.5, 1, 1.5, 2, 2.5, 3, 4, 6, 8, 10, 12, 24, and 36 hours postdose.
Eliglustat concentrations in plasma were determined using a validated liquid chromatography tandem mass spectrometry method with a lower limit of quantification (LLOQ) of 0.2 ng/mL.
Eliglustat PK parameters were summarized using descriptive statistics for each population group and for each CYP2D6 phenotype. For log-transformed Cmax, AUClast, AUC, t1/2z, CL/F, and Vz/F, the effect of severe RI on eliglustat PK parameters after a single dose of eliglustat tartrate was analyzed using a linear fixed effects model on CYP2D6 EM subjects. Inclusion of population, CYP3A weak inhibitor, age, and weight as covariate was selected manually, choosing the model with the lowest AlC value. After testing, the final model chosen were those with only population as fixed term. […]

[1] = CYP2D6 EM, healthy, N=7, single oral 100 mg eliglustat tartrate, plasma
[2] = CYP2D6 EM, severe RI, N=7, single oral 100 mg eliglustat tartrate, plasma
[3] = CYP2D6 IM, healthy, N=1, single oral 100 mg eliglustat tartrate, plasma
[4] = IM severe RI subject taking escitalopram and amlodipine
[5] = Severe RI vs Healthy, CYP2D6 EM subjects (7 severe RI and 7 healthy)

## CCCCCCCC(=O)N[C@H](CN1CCCC1)[C@H](O)c1ccc2c(c1)OCCO2 [eliglustat, N-((1R,2R)-1-(2,3-dihydrobenzo[b][1,4]dioxin-6-yl)-1-hydroxy-3-(pyrrolidin-1-yl)propan-2-yl)octanamide]
[1]
  CL/F, geometric mean: (834) [55.2] L/h
  CL/F, mean ± SD: 963 ± 532 L/h
  t1/2z, geometric mean: (8.39) [17.8] h
  t1/2z, mean ± SD: 8.50 h and 8.50 ± 1.51 h
  tlast, median: 36.00 h
[2]
  CL/F, geometric mean: (845) [39.2] L/h
  CL/F, mean ± SD: 903 ± 354 L/h
  t1/2z, geometric mean: (6.51) [13.3] h
  t1/2z, mean ± SD: 6.56 h and 6.56 ± 0.876 h
  tlast, median: 36.00 h
[3]
  CL/F: 151 L/h
  t1/2z: 9.59 h
  tlast: 36.00 h
CYP2D6 IM, severe RI, N=1, taking escitalopram and amlodipine, single oral 100 mg eliglustat tartrate, plasma
  tlast: 36.00 h
[4]
  AUClast ratio, CYP2D6 IM with severe RI vs CYP2D6 EM with severe RI: 35.2 fold
  AUClast ratio, CYP2D6 IM with severe RI vs CYP2D6 IM healthy subject: 6.90 fold
  AUClast ratio, CYP2D6 IM with severe RI vs healthy CYP2D6 EMs: 32.1 fold
[5]
  AUClast geometric mean ratio, point estimate: 0.994
  CL/F geometric mean ratio, point estimate: 1.014
  Vz/F geometric mean ratio, point estimate: 0.787
  t1/2z geometric mean ratio, point estimate: 0.776
Both sexes, plasma, oral, CYP2D6 EM, severe RI, coadministered weak CYP3A inhibitor amlodipine, N=5
  AUC: 98.3 ng·h/mL
Both sexes, plasma, oral, CYP2D6 EM, severe RI, coadministered weak CYP3A inhibitor amlodipine, N=5, read-out: Cmax, geometric mean
  Cmax: 10.6 ng/mL
Both sexes, plasma, oral, CYP2D6 EM, severe RI, eliglustat tartrate alone, N=2
  AUC: 104 ng·h/mL
Both sexes, plasma, oral, CYP2D6 EM, severe RI, eliglustat tartrate alone, N=2, read-out: Cmax, geometric mean
  Cmax: 15.2 ng/mL
Both sexes, plasma, po, CYP2D6 EM, healthy, N=7, single oral 100 mg eliglustat tartrate, plasma, read-out: AUC (extrapolated to infinity), geometric mean
  AUC(0-inf): 101 ng·h/mL
Both sexes, plasma, po, CYP2D6 EM, healthy, N=7, single oral 100 mg eliglustat tartrate, plasma, read-out: AUC (extrapolated to infinity), mean ± SD
  AUC(0-inf): 118 ± 71.1 ng·h/mL
Both sexes, plasma, po, CYP2D6 EM, healthy, N=7, single oral 100 mg eliglustat tartrate, plasma, read-out: AUClast, geometric mean
  AUC(0-t): 96 ng·h/mL
Both sexes, plasma, po, CYP2D6 EM, healthy, N=7, single oral 100 mg eliglustat tartrate, plasma, read-out: AUClast, mean ± SD
  AUC(0-t): 112 ± 68.7 ng·h/mL
Both sexes, plasma, po, CYP2D6 EM, healthy, N=7, single oral 100 mg eliglustat tartrate, plasma, read-out: Cmax, geometric mean
  Cmax: 13.4 ng/mL
Both sexes, plasma, po, CYP2D6 EM, healthy, N=7, single oral 100 mg eliglustat tartrate, plasma, read-out: Cmax, mean ± SD
  Cmax: 17.6 ± 13.2 ng/mL
Both sexes, plasma, po, CYP2D6 EM, healthy, N=7, single oral 100 mg eliglustat tartrate, plasma, read-out: Vz/F, geometric mean
  Vd/F: 10100 L
Both sexes, plasma, po, CYP2D6 EM, healthy, N=7, single oral 100 mg eliglustat tartrate, plasma, read-out: Vz/F, mean ± SD
  Vd/F: 11700 ± 6710 L
Both sexes, plasma, po, CYP2D6 EM, healthy, N=7, single oral 100 mg eliglustat tartrate, plasma, read-out: tmax, median
  Tmax: 1.5 h
Both sexes, plasma, po, CYP2D6 EM, severe RI, N=7 (5 taking amlodipine), single oral 100 mg eliglustat tartrate, plasma, read-out: Cmax, mean ± SD
  Cmax: 12.7 ± 4.85 ng/mL
Both sexes, plasma, po, CYP2D6 EM, severe RI, N=7, single oral 100 mg eliglustat tartrate, plasma, read-out: AUC (extrapolated to infinity), geometric mean
  AUC(0-inf): 99.8 ng·h/mL
Both sexes, plasma, po, CYP2D6 EM, severe RI, N=7, single oral 100 mg eliglustat tartrate, plasma, read-out: AUC (extrapolated to infinity), mean ± SD
  AUC(0-inf): 107 ± 42.1 ng·h/mL
Both sexes, plasma, po, CYP2D6 EM, severe RI, N=7, single oral 100 mg eliglustat tartrate, plasma, read-out: AUClast, geometric mean
  AUC(0-t): 95.5 ng·h/mL
Both sexes, plasma, po, CYP2D6 EM, severe RI, N=7, single oral 100 mg eliglustat tartrate, plasma, read-out: AUClast, mean ± SD
  AUC(0-t): 102 ± 41.7 ng·h/mL
Both sexes, plasma, po, CYP2D6 EM, severe RI, N=7, single oral 100 mg eliglustat tartrate, plasma, read-out: Cmax, geometric mean
  Cmax: 11.8 ng/mL
Both sexes, plasma, po, CYP2D6 EM, severe RI, N=7, single oral 100 mg eliglustat tartrate, plasma, read-out: Vz/F, geometric mean
  Vd/F: 7940 L
Both sexes, plasma, po, CYP2D6 EM, severe RI, N=7, single oral 100 mg eliglustat tartrate, plasma, read-out: Vz/F, mean ± SD
  Vd/F: 8480 ± 3190 L
Both sexes, plasma, po, CYP2D6 EM, severe RI, N=7, single oral 100 mg eliglustat tartrate, plasma, read-out: tmax, median
  Tmax: 4 h
plasma, oral, CYP2D6 IM, healthy, N=1, single oral 100 mg eliglustat tartrate, plasma, read-out: AUC (extrapolated to infinity)
  AUC(0-inf): 559 ng·h/mL
plasma, oral, CYP2D6 IM, healthy, N=1, single oral 100 mg eliglustat tartrate, plasma, read-out: AUClast
  AUC(0-t): 520 ng·h/mL
plasma, oral, CYP2D6 IM, healthy, N=1, single oral 100 mg eliglustat tartrate, plasma, read-out: Cmax
  Cmax: 54.7 ng/mL
plasma, oral, CYP2D6 IM, healthy, N=1, single oral 100 mg eliglustat tartrate, plasma, read-out: Vz/F
  Vd/F: 2090 L
plasma, oral, CYP2D6 IM, healthy, N=1, single oral 100 mg eliglustat tartrate, plasma, read-out: tmax
  Tmax: 3 h
plasma, oral, CYP2D6 IM, severe RI, N=1, taking escitalopram and amlodipine, single oral 100 mg eliglustat tartrate, plasma, read-out: AUClast
  AUC(0-t): 3590 ng·h/mL
plasma, oral, CYP2D6 IM, severe RI, N=1, taking escitalopram and amlodipine, single oral 100 mg eliglustat tartrate, plasma, read-out: Cmax
  Cmax: 220 ng/mL
plasma, oral, CYP2D6 IM, severe RI, N=1, taking escitalopram and amlodipine, single oral 100 mg eliglustat tartrate, plasma, read-out: tmax
  Tmax: 4 h
